# From patent publication EP0318860B1, “Substituted alkylamine derivatives” (BANYU PHARMACEUTICAL CO., LTD., priority 1987, dated 1989)
# Structures can show the parent of a compound that is named as a salt. Where two headings read alike, the source gives them in different places.
# Legend:
# rat squalene epoxidase = molecular target: T1, rat squalene epoxidase (Rattus norvegicus, UniProt P52020); assay: Squalene epoxidase inhibiting activity (3H-squalene to squalene-2,3-epoxide, solubilized liver microsome fraction); type: biochemical; conditions: 8 µM 3H-squalene, 37 °C, 30 minutes, read-out: 50 % inhibitory concentration (IC50)
# T1 construct: Livers were extracted and homogenized; from tissue; host or cells: liver of SD-strain female rats; microsomes solubilized with 2 % Triton X-100, 105000 x g supernatant
# T1 sequence (P52020 whole entry): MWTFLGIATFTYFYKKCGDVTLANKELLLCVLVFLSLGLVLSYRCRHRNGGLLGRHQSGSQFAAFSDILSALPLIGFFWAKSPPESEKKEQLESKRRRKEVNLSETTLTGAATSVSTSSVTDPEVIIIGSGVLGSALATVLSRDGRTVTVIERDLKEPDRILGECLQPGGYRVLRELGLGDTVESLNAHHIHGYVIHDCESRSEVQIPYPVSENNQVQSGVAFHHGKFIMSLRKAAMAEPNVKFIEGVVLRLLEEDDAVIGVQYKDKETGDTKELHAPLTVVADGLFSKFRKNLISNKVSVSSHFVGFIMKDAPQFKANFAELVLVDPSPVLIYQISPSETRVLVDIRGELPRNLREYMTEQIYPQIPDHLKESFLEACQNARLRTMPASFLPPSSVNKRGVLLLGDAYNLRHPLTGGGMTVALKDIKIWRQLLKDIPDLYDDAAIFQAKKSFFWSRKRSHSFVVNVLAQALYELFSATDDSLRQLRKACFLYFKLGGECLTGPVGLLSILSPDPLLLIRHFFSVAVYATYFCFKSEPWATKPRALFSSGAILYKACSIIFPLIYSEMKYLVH
# Method: The rat squalene epoxidase was prepared by the method described in J. Biol. Chem., vol.
# SD-strain female rats were killed by exsanguination. Livers were extracted and homogenized with in the presence of 2 volumes of 0.1M Tris-HCl buffer (pH 7.5). The homogenate was centrifuged at 9750 Xg for 10 minutes. The supernatant fraction was further centrifuged at 105000 Xg for 1 hour. The sediment was washed with 0.1M Tris-HCl buffer (pH 7.5), and then centrifuged at 105000 Xg for 1 hour. The microsomes obtained were suspended in 0.1M Tris-HCl buffer (pH 7.5) so that the amount of proteins was 40 mg/ml, and under ice cooling, the suspension was stirred in the presence of 2 % Triton X-100 to solubilize the enzyme. After the solubilization, the solution was diluted to a Triton X-100 concentration of 0.5 % with 1 mM EDTA and 1 mM dithiothreitol, and centrifuged at 105000 Xg for 1 hour. The resulting supernatant fraction was used in the following test as a squalene epoxidase fraction.
# The squalene epoxidase activity was assayed in accordance with the method described in J. Biol. Chem., vol.
# Three microliters of a dimethyl sulfoxide solution of a test drug was added to a solution composed of 0.2 ml of the squalene epoxidase fraction prepared in (1) [proteins 0.4 mg, 0.5 % Triton X-100, […] Tris-HCl buffer (pH 7.5)], 100 µM FAD, 1 mM NADPH, 1 mM EDTA and 8 µM ³H-squalene-Tween 80 emulsion to adjust the total amount of the solution to 0.3 ml. The solution was incubated at 37 °C for 30 minutes with shaking. Then, 0.3 ml of a 10 % methanolic potassium hydroxide was added to stop the reaction, and the reaction mixture was left to stand at room temperature for 1 hour. The non-saponified material was extracted with petroleum ether, and the solvent was evaporated under a nitrogen stream. […] The position of the resulting ³H-squalene-2,3-epoxide on TLC was determined using ergosterol acetate as a marker, and the ³H-squalene-2,3-epoxide portion on the TLC was cut off. The TLC strip was immersed in a toluene-type scintillator, and measured by a liquid scintillation counter.
# [1] = system: cholesterol biosynthesis in the cultured Hep-G2 cells; assay: Inhibitory activity on cholesterol biosynthesis in cultured cells ([14C] acetate incorporation); type: cell-based; conditions: HepG2; Human hepatoma (Hep-G2) cells, [14C] sodium acetate, 6 hours; read-out: 50% inhibitory concentration (IC₅₀)
# Method: Human hepatoma (Hep-G2) cells were cultured in 10 cm² dishes until they formed a monolayer. One milliliter of the culture medium was replaced, and 1 µCi of [¹⁴C] sodium acetate and 1 microliter of a dimethyl sulfoxide solution of a test drug were added, and the cells were cultured at 37 °C in air containing 5 % of carbon dioxide for 6 hours.
# After the cultivation, the medium was aspirated, and the cells were cooled with ice, and washed with Dulbecco's phosphate buffered saline solution. The resulting cells were scraped by a rubber policeman, and collected by centrifugation. The cells collected were dissolved in 400 microliters of 0.3N sodium hydroxide. A 200 microliters aliquot of the solution was used for extraction, and the remainder, for protein determination.
# To 200 microliters of the extracted cells, 15 % ethanolic potassium hydroxide was added, and saponification was carried out at 75 °C for 1 hour. Water (1 ml) was then added, and the mixture was extracted with 2 ml of petroleum ether twice to remove non-saponified materials. The petroleum ether extracts were washed with 1 ml of water, and evaporated under a nitrogen stream. The residue was spotted on a pre-coated silica gel TLC plate using a small amount of chloroform, and developed with hexane/ethyl ether/acetic acid (85:15:4). Cholesterol and squalene portions on the TLC were detected with iodine, and the corresponding TLC portions were cut out. The TLC strips were immersed in a toluene-type scintillator, and radioactivity was counted by a liquid scintillation counter. The results were corrected by the amount of proteins measured by the method described in J. Biol. Chem., vol. 193, page 265, 1951. The 50 % inhibitory concentration (IC₅₀ value) of the compound of the invention on cholesterol biosynthesis in the cultured Hep-G2 cells was calculated.
# Trichophyton = assay: Antimycotic activity test (Sabouraud's agar dilution, MIC); type: cell-based; conditions: 120 h
# Method: (§1) Each of the test fungi was cultured (Candida albicans was cultured overnight in Sabouraud broth; Trichophyton was inoculated in Sabouraud's agar and cultured for 2 days, after which the spores were harvested). Thereafter, one platinum loopful of Candida albicans or Trichophyton (10⁶ cells/ml for C. albicans; 10⁶ spores/ml for Trichophyton) was inoculated in Sabouraud's agar containing the test drug in various concentrations, and cultured (at 37 °C for 2 days for C. albicans; at 28 °C for 5 days for Trichophyton). Then, the minimum growth inhibition concentration (MIC) was measured. […]
# Candida albicans = assay: as above; type: cell-based; conditions: 48 h
# Method: as §1
# [2] = 28 °C for 5 days, read-out: MIC
# [3] = C. albicans, 37 °C for 2 days, read-out: MIC
Compound,IC50 (rat squalene epoxidase) [nM],IC50 [1] [nM],MIC (Trichophyton; [2]) [µg/mL],MIC (Candida albicans; [3]) [µg/mL],MIC (Trichophyton) [µg/mL],MIC (Candida albicans) [µg/mL]
"CN(C/C=C/C#CC(C)(C)C)Cc1cccc(OCc2ccccc2)c1.Cl [Compound 2, (E)-N-(6,6-dimethyl-2-hepten-4-ynyl)-N-methyl-3-benzyloxybenzylamine hydrochloride]",1400,1500,> 100,> 100,–,–
"CN(C/C=C/C#CC(C)(C)C)Cc1cccc(OCc2cccc3ccccc23)c1 [Compound 18, (E)-N-(6,6-dimethyl-2-hepten-4-ynyl)-N-methyl-3-(1-naphthylmethyloxy)benzylamine]",250,–,> 100,> 100,–,–
"CCCN(C/C=C/C#CC(C)(C)C)Cc1cccc(OCc2ccccc2)c1 [Compound 37, (E)-N-(6,6-dimethyl-2-hepten-4-ynyl)-N-propyl-3-benzyloxybenzylamine]",270,85,–,–,–,–
"CCN(C/C=C/C#CC(C)(C)C)Cc1cccc(OCc2cccc(C#N)c2)c1 [Compound 46, (E)-N-(6,6-dimethyl-2-hepten-4-ynyl)-N-ethyl-3-(3-cyanobenzyloxy)benzylamine]",150,110,–,–,–,–
"CCCN(C/C=C/C#CC(C)(C)C)Cc1cccc(OCc2cccc(C#N)c2)c1 [Compound 47, (E)-N-(6,6-dimethyl-2-hepten-4-ynyl)-N-propyl-3-(3-cyanobenzyloxy)benzylamine hydrochloride]",150,90,–,–,–,–
"CC(C)=CCOc1cccc(CN(C)C/C=C/C#CC(C)(C)C)c1 [Compound 61, (E)-N-(6,6-dimethyl-2-hepten-4-ynyl)-N-methyl-3-(3-methyl-2-butenyloxy)benzylamine]",6100,–,> 100,> 100,–,–
"CN(C/C=C/C#CC(C)(C)C)Cc1cccc(OCc2cccc(C#N)c2)c1.Cl [Compound 64, (E)-N-(6,6-dimethyl-2-hepten-4-ynyl)-N-methyl-3-(3-cyanobenzyloxy)benzylamine hydrochloride]",510,120,> 100,> 100,–,–
"CN(C/C=C/C#CC(C)(C)C)Cc1cccc(OCc2cccc(-c3cnco3)c2)c1 [Compound 78, (E)-N-(6,6-dimethyl-2-hepten-4-ynyl)-N-methyl-3-[3-(5-oxazolyl)benzyloxy]benzylamine]",63,20,–,–,–,–
"CN(C/C=C/C#CC(C)(C)C)Cc1cccc(OCc2cccc(-c3cncs3)c2)c1 [Compound 79, (E)-N-(6,6-dimethyl-2-hepten-4-ynyl)-N-methyl-3-[3-(5-thiazolyl)benzyloxy]benzylamine]",89,23,–,–,–,–
"CN(C/C=C/C#CC(C)(C)C)Cc1cccc(/C=C/c2ccccc2)c1.Cl [Compound 97, N-[(E)-6,6-dimethyl-2-hepten-4-ynyl]-N-methyl-3-[(E)-styryl]benzylamine hydrochloride]",320,–,> 100,> 100,–,–
"Cc1ccccc1CNc1cccc(CN(C)C/C=C/C#CC(C)(C)C)c1 [Compound 103, (E)-N-(6,6-dimethyl-2-hepten-4-ynyl)-N-methyl-3-(2-methylbenzylamino)benzylamine hydrochloride]",360,450,–,–,–,–
"CN(C/C=C/C#CC(C)(C)C)Cc1cccc(CCc2ccccc2)c1 [Compound 107, (E)-N-(6,6-dimethyl-2-hepten-4-ynyl)-N-methyl-3-(beta-phenethyl)benzylamine]",3600,–,> 100,> 100,–,–
"CN(C/C=C/C#CC(C)(C)C)Cc1cc(OCc2ccccc2)ccn1.Cl.Cl [Compound 110, (E)-N-(6,6-dimethyl-2-hepten-4-ynyl)-N-methyl-4-benzyloxy-2-pyridylmethylamine dihydrochloride]",1500,–,> 100,> 100,–,–
"CN(C/C=C/C#CC(C)(C)C)Cc1cccc2ccccc12 [terbinafine, reference compound]",> 100000,–,–,–,< 0.01,0.3
